# From PubChem BioAssay (NCI)
# Several values for one entry are separate records, joined by “and”; a condition that tells them apart may be missing. Identical values can stand only once.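 Dose response: 5 concentrations. Exposure: 48 h. Format: 96-well plates. Endpoint: linear interpolation; highest concentration if not reached. GI50 marks 50% less growth. TGI is the concentration that stops growth completely.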
# Legend:
# Experiment in all cases: NCI anticancer screen, dose series, 48 h
# UO-31 renal = system: UO-31 renal
# K-562 leukemia = system: K-562 leukemia
# M19-MEL melanoma = system: M19-MEL melanoma
# MALME-3M melanoma = system: MALME-3M melanoma
# LXFL 529 NSCLC = system: LXFL 529 NSCLC
# U251 CNS = system: U251 CNS
# EKVX NSCLC = system: EKVX NSCLC
# SN12C renal = system: SN12C renal
# UACC-257 melanoma = system: UACC-257 melanoma
# SK-OV-3 ovarian = system: SK-OV-3 ovarian
Structure (SMILES),GI50 (UO-31 renal) [µM],TGI (UO-31 renal),GI50 (K-562 leukemia) [µM],TGI (K-562 leukemia),GI50 (M19-MEL melanoma) [µM],TGI (M19-MEL melanoma) [µM],GI50 (MALME-3M melanoma) [µM],TGI (MALME-3M melanoma),GI50 (LXFL 529 NSCLC) [µM],TGI (LXFL 529 NSCLC) [µM],GI50 (U251 CNS) [µM],TGI (U251 CNS),GI50 (EKVX NSCLC) [µM],TGI (EKVX NSCLC) [µM],GI50 (SN12C renal) [µM],TGI (SN12C renal),GI50 (UACC-257 melanoma) [µM],TGI (UACC-257 melanoma) [µM],GI50 (SK-OV-3 ovarian) [µM],TGI (SK-OV-3 ovarian)
CC(C)=NO.CC(C)=NO.CC(C)=NO.CC(C)=NO.[Ti],> 100,> 100 µM,> 100,> 100 µM,> 100,> 100,> 100,> 100 µM,> 100,> 100,> 100,> 100 µM,> 100,> 100,> 100,> 100 µM,> 100,> 100,> 100,> 100 µM
O=[N+]([O-])C1(CO)COC(CCc2ccccc2)OC1 (stereo not drawn),,> 100 µM,,> 100 µM,,> 100,,> 100 µM,,> 100,,> 100 µM,,> 100,,> 100 µM,,> 100,,> 100 µM
Cc1c(N)nc(C2CC(=O)N2CC(N)C(N)=O)nc1C(=O)NC(C(=O)NC(C)C(O)C(C)C(=O)NC(C(=O)NCCc1nc(-c2nc(C(=O)NCCNCC(C)O)cs2)cs1)C(C)O)C(OC1OC(CO)C(O)C(O)C1OC1OC(CO)C(O)C(OC(N)=O)C1O)c1cnc[nH]1 (stereo not drawn),0.974,17 µM and 21.6 µM,35.9,50 µM and > 100 µM,,> 57.6,1.16,22.5 µM and 11.9 µM,,> 100,2.53,50 µM and 24.2 µM,> 50,> 88.9,5.33,36.4 µM and 27 µM,6.2,49.4,10.6,50 µM and > 32.9 µM
O=C(Nc1ccccc1)Oc1ccccc1C1CCCCC1,,74.3 µM,,50.3 µM,,37.5,,57.1 µM,,> 100,,30.7 µM,,85.4,,41.1 µM,,40.2,,> 100 µM
CCCCc1c2c(nc3c1CC/C(=C\c1ccccc1)C3=O)CCCC2,,19.1 µM,,32.3 µM,,16.9,,20.2 µM,,4.16,,10.8 µM,,24.9,,10.9 µM,,18.3,,22.9 µM
CN(C)c1ccc(/C=C2\Cc3ccccc3C2=O)cc1Br,,> 100 µM,,> 100 µM,,> 100,,> 100 µM,,> 100,,> 100 µM,,> 100,,> 100 µM,,> 100,,> 100 µM
NC(=O)NC(=O)C1CCC(=O)N1S(=O)(=O)c1ccc(Cl)cc1 (stereo not drawn),,> 100 µM,,> 100 µM,,> 100,,> 100 µM,,> 100,,> 100 µM,,> 100,,> 100 µM,,> 100,,> 100 µM
